From PubChem BioAssay (NCI)
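The concentration for 50% growth inhibition is given as GI50. TGI: concentration producing complete growth inhibition.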

What was measured:
Assay in all cases: inhibition of tumour cell growth, NCI panel, 384-well format
[1] = test system: IGROV1 ovarian
[2] = test system: MALME-3M melanoma
[3] = test system: A498 renal
[4] = test system: DU-145 prostate
[5] = test system: SK-OV-3 ovarian
[6] = test system: MDA-MB-468 breast
[7] = test system: SF-268 CNS
[8] = test system: MOLT-4 leukemia
[9] = test system: OVCAR-5 ovarian
[10] = test system: RXF 393 renal
[11] = test system: NCI-H460 NSCLC
[12] = test system: HL-60(TB) leukemia
[13] = test system: HS 578T breast
[14] = test system: COLO 205 colon
[15] = test system: HCT-15 colon
[16] = test system: UACC-257 melanoma
[17] = test system: NCI-H226 lung
[18] = test system: HOP-62 NSCLC
[19] = test system: PC-3 prostate
[20] = test system: 786-0 renal
[21] = test system: K-562 leukemia
[22] = test system: MDA-MB-231 breast
[23] = test system: SF-295 CNS
[24] = test system: EKVX NSCLC
[25] = test system: BT-549 breast
[26] = test system: UACC-62 melanoma
[27] = test system: HCT-116 colon
[28] = test system: A549 NSCLC
[29] = test system: RPMI-8226 leukemia
[30] = test system: UO-31 renal
[31] = test system: NCI-H322M lung
[32] = test system: OVCAR-3 ovarian
[33] = test system: KM12 colon
[34] = test system: SF-539 CNS
[35] = test system: SN12C renal
[36] = test system: OVCAR-4 ovarian
[37] = test system: T-47D breast
[38] = test system: TK-10 renal
[39] = test system: SNB-19 CNS
[40] = test system: CAKI-1 renal
[41] = test system: NCI-H522 lung
[42] = test system: HT29 colon
[43] = test system: SK-MEL-5 melanoma
[44] = test system: NCI/ADR-RES ovarian
[45] = test system: U251 glioblastoma
[46] = test system: SNB-75 CNS
[47] = test system: LOX IMVI melanoma
[48] = test system: CCRF-CEM leukemia
[49] = test system: SW-620 colon
[50] = test system: SK-MEL-28 melanoma
[51] = test system: MDA-MB-435 melanoma
[52] = test system: SK-MEL-2 melanoma

CC[C@H](CO)Nc1nc(NCc2ccccc2)c2ncn(C(C)C)c2n1
GI50 [1]: 26.5 µM
TGI [1]: 95.8 µM
GI50 [2]: 24.8 µM
TGI [2]: 57.8 µM
GI50 [3]: 27.2 µM
TGI [3]: 82.1 µM
GI50 [4]: 20.9 µM
TGI [4]: 56.3 µM
GI50 [5]: 36.5 µM
TGI [5]: > 100 µM
GI50 [6]: 19.8 µM
TGI [6]: 37.9 µM
GI50 [7]: 15.3 µM
TGI [7]: 35.6 µM
GI50 [8]: 17.3 µM
TGI [8]: 32.1 µM
GI50 [9]: 24.8 µM
TGI [9]: > 100 µM
GI50 [10]: 14.1 µM
TGI [10]: 28.2 µM
GI50 [11]: 16.2 µM
TGI [11]: 31.8 µM
GI50 [12]: 14.8 µM
TGI [12]: 28.1 µM
GI50 [13]: 15.2 µM
TGI [13]: 32.3 µM
GI50 [14]: 21.3 µM
TGI [14]: 52.8 µM
GI50 [15]: 19.4 µM
TGI [15]: 60.3 µM
GI50 [16]: 21.2 µM
TGI [16]: 59.5 µM
GI50 [17]: 22.4 µM
TGI [17]: 68.3 µM
GI50 [18]: 21.8 µM
TGI [18]: 62.2 µM
GI50 [19]: 21 µM
TGI [19]: 56.1 µM
GI50 [20]: 22.7 µM
TGI [20]: 61.5 µM
GI50 [21]: 36.1 µM
TGI [21]: > 100 µM
GI50 [22]: 22.4 µM
TGI [22]: 62.9 µM
GI50 [23]: 25.2 µM
TGI [23]: 78.6 µM
GI50 [24]: 23 µM
TGI [24]: 59.6 µM
GI50 [25]: 15.9 µM
TGI [25]: 33.6 µM
GI50 [26]: 13.7 µM
TGI [26]: 27.3 µM
GI50 [27]: 16.4 µM
TGI [27]: 35.3 µM
GI50 [28]: 27.5 µM
TGI [28]: > 100 µM
GI50 [29]: 17 µM
TGI [29]: 31.6 µM
GI50 [30]: 20.9 µM
TGI [30]: 45 µM
GI50 [31]: 19.1 µM
TGI [31]: 49.9 µM
GI50 [32]: 17.2 µM
TGI [32]: 43.9 µM
GI50 [33]: 18.8 µM
TGI [33]: 43.6 µM
GI50 [34]: 19.1 µM
TGI [34]: 40.3 µM
GI50 [35]: 21.1 µM
TGI [35]: 52.1 µM
GI50 [36]: 32 µM
TGI [36]: > 100 µM
GI50 [37]: 24.9 µM
TGI [37]: 76.1 µM
GI50 [38]: 25 µM
TGI [38]: 83.6 µM
GI50 [39]: 26.8 µM
TGI [39]: > 100 µM
GI50 [40]: 24 µM
TGI [40]: 77.4 µM
GI50 [41]: 18.3 µM
TGI [41]: 50.6 µM
GI50 [42]: 20.1 µM
TGI [42]: 47.2 µM
GI50 [43]: 15.4 µM
TGI [43]: 31.8 µM
GI50 [44]: 22.3 µM
TGI [44]: 75.2 µM
GI50 [45]: 28.2 µM
TGI [45]: > 100 µM
GI50 [46]: 16.6 µM
TGI [46]: 35.4 µM
GI50 [47]: 19.3 µM
TGI [47]: 37.5 µM
GI50 [48]: 16.8 µM
TGI [48]: 33.3 µM
GI50 [49]: 29.5 µM
TGI [49]: 89.9 µM
GI50 [50]: 16.3 µM
TGI [50]: 36.4 µM
GI50 [51]: 23.2 µM
TGI [51]: 64.6 µM
GI50 [52]: 36.7 µM
TGI [52]: 63.6 µM
